Data taken from patent US6436929B1 (Wyeth, priority 1999, dated 2002).
Several values for one entry are separate records, joined by “and”; a condition that tells them apart may be missing. Equal values may be shown once. Each block holds one compound with its values, some of them ahead of it.

Experiments:
[1] = tested on: T47D cells; assay: T47D cell proliferation assay (BrdU incorporation); format: cell-based; settings: half-maximal increase in BrdU incorporation, individual studies (Exp)
Protocol: The objective of this assay is the determination of progestational and antiprogestational potency by using a cell proliferation assay in T47D cells. A compound's effect on DNA synthesis in T47D cells is measured.
DMEM:F12(1:1) (GIBCO, BRL) supplemented with 10% (v/v) fetal bovine serum (not heat-inactivated), 100 U/ml penicillin, […], and 2 mM GlutaMax (GIBCO, BRL).
Minimum Essential Medium (MEM) (#51200-038GIBCO, BRL) phenol red-free supplemented with 0.5% charcoal stripped fetal bovine serum, 100 U/ml penicillin, […] streptomycin, and 2 mM GlutaMax (GIBCO, BRL). […]
At the end of BrdU labeling, the medium is removed and BrdU incorporation is measured using a cell proliferation ELISA kit (#RPN 250, Amersham Life Science) according to manufacturer's instructions. […] Then 25 μl of 1 M sulfuric acid is added to each well to stop color reaction and optical density is read in a plate reader at 450 nm within 5 min.
Square root-transformed data are used for analysis of variance and nonlinear dose response curve fitting for both agonist and antagonist modes. […] EC50 or IC50 values are calculated from the retransformed values. […]

[2] = target: T1, human PR (Homo sapiens, UniProt P06401); assay: PRE-luciferase assay in CV-1 cells co-transfected with human PR and PRE-luciferase plasmids; format: cell-based; settings: agonist mode, PRE-luciferase in CV-1 cells, Table 1; read-out: hPR CV-1 EC50
T1 construct: expressed in transfected cells; host or cells: CV-1 cells (electroporation with pLEM-hPR-B and pGL3-2xPRE-luciferase)
T1 sequence (P06401 1-933): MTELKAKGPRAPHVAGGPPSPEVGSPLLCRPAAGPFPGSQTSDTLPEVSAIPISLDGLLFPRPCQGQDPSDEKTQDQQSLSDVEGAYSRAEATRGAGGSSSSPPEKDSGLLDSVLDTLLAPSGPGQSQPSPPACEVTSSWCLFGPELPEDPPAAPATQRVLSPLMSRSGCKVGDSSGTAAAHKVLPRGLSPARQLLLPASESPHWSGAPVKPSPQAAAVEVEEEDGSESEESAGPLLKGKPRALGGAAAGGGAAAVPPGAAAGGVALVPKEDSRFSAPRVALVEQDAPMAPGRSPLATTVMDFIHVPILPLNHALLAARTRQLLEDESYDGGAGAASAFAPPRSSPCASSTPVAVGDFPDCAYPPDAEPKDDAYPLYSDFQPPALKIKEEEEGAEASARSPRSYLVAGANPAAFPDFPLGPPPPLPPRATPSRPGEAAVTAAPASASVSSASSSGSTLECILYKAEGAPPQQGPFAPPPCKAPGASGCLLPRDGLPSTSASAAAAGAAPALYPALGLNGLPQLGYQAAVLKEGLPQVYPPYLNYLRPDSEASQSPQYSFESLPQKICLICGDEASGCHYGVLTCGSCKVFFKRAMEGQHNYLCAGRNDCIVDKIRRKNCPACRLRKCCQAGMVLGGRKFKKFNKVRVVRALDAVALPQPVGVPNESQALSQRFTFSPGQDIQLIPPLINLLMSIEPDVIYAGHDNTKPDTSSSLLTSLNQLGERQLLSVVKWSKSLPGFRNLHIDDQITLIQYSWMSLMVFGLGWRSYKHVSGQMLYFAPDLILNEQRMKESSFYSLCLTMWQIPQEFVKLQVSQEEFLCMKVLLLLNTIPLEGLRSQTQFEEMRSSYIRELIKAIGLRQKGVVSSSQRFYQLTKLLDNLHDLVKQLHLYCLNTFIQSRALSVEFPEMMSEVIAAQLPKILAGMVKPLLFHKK
Protocol: The object of this assay is to determine a compound's progestational or antiprogestational potency based on its effect on PRE-luciferase reporter activity in CV-1 cells co-transfected with human PR and PRE-luciferase plasmids. The materials methods used in the assay are as follows.
Electroporation is carried out at 260 V and […] in a Biorad Gene Pulser II. After electroporation, cells are resuspended in growth medium and plated in 96-well plate at 40,000 cells/well in 200 μl. Following overnight incubation, the medium is changed to experimental medium Cells are then treated with reference or test compounds in experimental medium. […] Twenty-four hr. after treatment, the medium is discarded, cells are washed three times with D-PBS (GIBCO, BRL). Fifty μl of cell lysis buffer (Promega, Madison, Wis.) is added to each well and the plates are shaken for 15 min in a Titer Plate Shaker (Lab Line Instrument, Inc.).
Each treatment consists of at least 4 replicates. Log transformed data are used for analysis of variance and nonlinear dose response curve fitting for both agonist and antagonist modes. Huber weighting is used to downweight the effects of outliers. EC50 or IC50 values are calculated from the retransformed values.

[3] = tested on: Ovulation; assay: Ovulation inhibition; format: in vivo; settings: Table 1
[4] = tested on: rat uterine decidualization; assay: Rat decidualization assay; format: in vivo; settings: s.c.; for Estimated average EC50: average over dose-response curves; for EC50: ovariectomized rats, uterine wet weight/decidual response, individual studies (Exp)
Protocol: The animals are treated once daily for seven days.
Uteri are removed and trimmed of fat.
Decidual response: [(D−C)/C]×100%

SMILES: C[C@H](O)C(=O)[C@@]1(C)CC[C@H]2[C@@H]3CCC4=CC(=O)CCC4=C3CC[C@@]21C [Trimegestone]
- EC50 [1]: 0.017 nM and 0.014 nM and 0.019 nM

SMILES: CC(=O)O[C@]1(C(C)=O)CC[C@H]2[C@@H]3C[C@H](C)C4=CC(=O)CC[C@]4(C)[C@H]3CC[C@@]21C [MPA, medroxyprogesterone acetate]
- EC50 ([1]; Homo sapiens, T47D): 0.019 nM

SMILES: C#C[C@]1(O)CC[C@H]2[C@@H]3CCC4=CC(=O)CC[C@@H]4[C@H]3C(=C)C[C@@]21CC [3-Ketodesogestrel]
- Estimated average EC50 [4]: 0.10 mg/kg
- EC50 [4]: 0.10 mg/kg and 0.06 mg/kg and 0.11 mg/kg

SMILES: C#C[C@]1(O)CC[C@H]2[C@@H]3CCC4=CC(=O)CC[C@@H]4[C@H]3CC[C@@]21CC [Levonorgestrel]
- Estimated average EC50 [4]: 0.10 mg/kg
- EC50 [4]: 0.08 mg/kg and 0.12 mg/kg and 0.09 mg/kg (2×)

Further lines, with some results ahead:

- EC50 [2]: 0.65 nM
- melting point: 183 to 184 °C
SMILES: CC1(C)OC(=S)Nc2ccc(-c3cccc(Cl)c3)cc21 [Compound 1, 6-(3-Chlorophenyl)-4,4-dimethyl-1,4-dihydro-benzo[d][1,3]oxazin-2-thione]

- EC50 [2]: 5.1 nM
SMILES: CC1(C)OC(=S)Nc2ccc(-c3cc(F)cc(C#N)c3)cc21 [Compound 3, 3-(4,4-Dimethyl-2-thioxo-1,4-dihydro-2H-benzo[d][1,3]oxazin-6-yl)-5-fluorobenzonitrile]

- EC50 [2]: 0.3 nM
- melting point: 242 to 243 °C
SMILES: CC1(C)OC(=S)Nc2ccc(-c3csc(C#N)c3)cc21 [Compound 2, 4-(4,4-Dimethyl-2-thioxo-1,4-dihydro-2H-benzo[d][1,3]oxazin-6-yl)-thiophene-2-carbonitrile]
- Ovulation Inhibition ED100 [3]: 1 mg/kg

- melting point: 174 to 175 °C
SMILES: CCCc1cc(C#N)sc1-c1ccc2c(c1)C(C)(C)OC(=S)N2 [Example 62, 5-(4,4-Dimethyl-2-thioxo-1,4-dihydro-2H-3,1-benzoxazin6-yl)-4-propylthiophene2-carbonitrile]
